How the values were obtained:
[1] = Plasma stability evaluation (TLC analysis); assay type: in vitro ADME; conditions: 37° C., 60 minutes, TLC analysis
Outline: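 TLC analysis, using each compound's synthesis conditions, judged stability after methanol was added and samples were centrifuged to remove protein. Beforehand, each tracer had spent 60 minutes at 37° C in pooled heparinized normal human plasma.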

[2] = In vivo kinetics experiment (radioactivity distribution); parameters: species or system Wistar male rat; conditions: rat i.v., mean ± SD
Outline: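 Tissue radioactivity (% ID/g) and adrenal-to-blood, liver, kidney, small intestine, muscle and fat ratios determined at 10, 30 and 60 min post-dose. Tracers (approximately 1 to 3.7 MBq, saline with 1 w/v % ascorbic acid) injected i.v. into caudal vein of anesthetized 9-week male Wistar rats; organs excised, weighed, counted.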

[3] = tested on: human adrenal gland section expressing aldosterone-producing adenoma; assay: In vitro autoradiography using human adrenal adenoma; assay type: binding; conditions: section of FIG. 17(b)
Outline: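 Autoradiography readout: PSL in equal-sized ROIs over adenoma (B2) and normal adrenal cortex (B1), expressed as B2/B1 and decay-corrected using half-life, applied activity and plate contact time. Tissue was surgically excised human adrenal, frozen and cut at 7 μm, incubated 10 min with 5-33 kBq/mL tracer in BSA-containing PBS, then imaged after 16-20 h exposure.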

Radiochemical purity after incubation in human plasma [1]: 92%
Adrenal gland/blood ratio of radioactivity accumulation ([2]; 10 min after administration): 27.61 ± 6.22
Adrenal gland/fat ratio of radioactivity accumulation ([2]; 10 min after administration): 100.35 ± 29.67
Adrenal gland/kidney ratio of radioactivity accumulation ([2]; 10 min after administration): 14.48 ± 2.49
Adrenal gland/liver ratio of radioactivity accumulation ([2]; 10 min after administration): 3.68 ± 0.80
Adrenal gland/muscle ratio of radioactivity accumulation ([2]; 10 min after administration): 62.69 ± 29.38
Adrenal gland/small intestine ratio of radioactivity accumulation ([2]; 10 min after administration): 18.10 ± 4.67
Radioactivity distribution Adrenal gland ([2]; 10 min after administration): 12.62 ± 2.99 % ID/g
Radioactivity distribution Bladder (including urine) ([2]; 10 min after administration): 0.22 ± 0.08 % ID/g
Radioactivity distribution Blood ([2]; 10 min after administration): 0.46 ± 0.03 % ID/g
Radioactivity distribution Fat ([2]; 10 min after administration): 0.13 ± 0.02 % ID/g
Radioactivity distribution Femur ([2]; 10 min after administration): 3.25 ± 0.85 % ID/g
Radioactivity distribution Heart ([2]; 10 min after administration): 0.33 ± 0.02 % ID/g
Radioactivity distribution Kidney ([2]; 10 min after administration): 0.86 ± 0.06 % ID/g
Radioactivity distribution Large intestine ([2]; 10 min after administration): 0.13 ± 0.02 % ID/g
Radioactivity distribution Liver ([2]; 10 min after administration): 3.43 ± 0.26 % ID/g
Radioactivity distribution Lung ([2]; 10 min after administration): 0.49 ± 0.03 % ID/g
Radioactivity distribution Muscle (lower limbs) ([2]; 10 min after administration): 0.21 ± 0.05 % ID/g
Radioactivity distribution Remaining whole body ([2]; 10 min after administration): 0.30 ± 0.04 % ID/g
Radioactivity distribution Small intestine ([2]; 10 min after administration): 0.71 ± 0.10 % ID/g
Radioactivity distribution Spleen ([2]; 10 min after administration): 1.43 ± 0.11 % ID/g
Radioactivity distribution Stomach ([2]; 10 min after administration): 0.66 ± 0.21 % ID/g
Radioactivity distribution Testis ([2]; 10 min after administration): 0.13 ± 0.02 % ID/g
Radioactivity distribution Whole brain ([2]; 10 min after administration): 0.04 ± 0.00 % ID/g
Adrenal gland/blood ratio of radioactivity accumulation ([2]; 30 min after administration): 23.78 ± 2.07
Adrenal gland/fat ratio of radioactivity accumulation ([2]; 30 min after administration): 88.69 ± 3.10
Adrenal gland/kidney ratio of radioactivity accumulation ([2]; 30 min after administration): 28.65 ± 3.77
Adrenal gland/liver ratio of radioactivity accumulation ([2]; 30 min after administration): 6.43 ± 0.94
Adrenal gland/muscle ratio of radioactivity accumulation ([2]; 30 min after administration): 94.79 ± 8.71
Adrenal gland/small intestine ratio of radioactivity accumulation ([2]; 30 min after administration): 16.12 ± 2.61
Radioactivity distribution Adrenal gland ([2]; 30 min after administration): 15.71 ± 1.59 % ID/g
Radioactivity distribution Bladder (including urine) ([2]; 30 min after administration): 0.28 ± 0.08 % ID/g
Radioactivity distribution Blood ([2]; 30 min after administration): 0.66 ± 0.04 % ID/g
Radioactivity distribution Fat ([2]; 30 min after administration): 0.18 ± 0.01 % ID/g
Radioactivity distribution Femur ([2]; 30 min after administration): 19.34 ± 6.00 % ID/g
Radioactivity distribution Heart ([2]; 30 min after administration): 0.31 ± 0.02 % ID/g
Radioactivity distribution Kidney ([2]; 30 min after administration): 0.55 ± 0.02 % ID/g
Radioactivity distribution Large intestine ([2]; 30 min after administration): 0.16 ± 0.03 % ID/g
Radioactivity distribution Liver ([2]; 30 min after administration): 2.46 ± 0.18 % ID/g
Radioactivity distribution Lung ([2]; 30 min after administration): 0.53 ± 0.02 % ID/g
Radioactivity distribution Muscle (lower limbs) ([2]; 30 min after administration): 0.17 ± 0.02 % ID/g
Radioactivity distribution Remaining whole body ([2]; 30 min after administration): 0.31 ± 0.02 % ID/g
Radioactivity distribution Small intestine ([2]; 30 min after administration): 0.98 ± 0.06 % ID/g
Radioactivity distribution Spleen ([2]; 30 min after administration): 1.00 ± 0.04 % ID/g
Radioactivity distribution Stomach ([2]; 30 min after administration): 1.27 ± 0.33 % ID/g
Radioactivity distribution Testis ([2]; 30 min after administration): 0.25 ± 0.02 % ID/g
Radioactivity distribution Whole brain ([2]; 30 min after administration): 0.04 ± 0.00 % ID/g
Adrenal gland/blood ratio of radioactivity accumulation ([2]; 60 min after administration): 27.80 ± 8.18
Adrenal gland/fat ratio of radioactivity accumulation ([2]; 60 min after administration): 120.42 ± 43.06
Adrenal gland/kidney ratio of radioactivity accumulation ([2]; 60 min after administration): 40.68 ± 13.23
Adrenal gland/liver ratio of radioactivity accumulation ([2]; 60 min after administration): 20.57 ± 8.91
Adrenal gland/muscle ratio of radioactivity accumulation ([2]; 60 min after administration): 147.93 ± 55.03
Adrenal gland/small intestine ratio of radioactivity accumulation ([2]; 60 min after administration): 15.84 ± 3.51
Radioactivity distribution Adrenal gland ([2]; 60 min after administration): 19.09 ± 6.65 % ID/g
Radioactivity distribution Bladder (including urine) ([2]; 60 min after administration): 0.29 ± 0.08 % ID/g
Radioactivity distribution Blood ([2]; 60 min after administration): 0.68 ± 0.05 % ID/g
Radioactivity distribution Fat ([2]; 60 min after administration): 0.16 ± 0.03 % ID/g
Radioactivity distribution Femur ([2]; 60 min after administration): 44.38 ± 12.58 % ID/g
Radioactivity distribution Heart ([2]; 60 min after administration): 0.28 ± 0.04 % ID/g
Radioactivity distribution Kidney ([2]; 60 min after administration): 0.47 ± 0.02 % ID/g
Radioactivity distribution Large intestine ([2]; 60 min after administration): 0.19 ± 0.02 % ID/g
Radioactivity distribution Liver ([2]; 60 min after administration): 0.95 ± 0.10 % ID/g
Radioactivity distribution Lung ([2]; 60 min after administration): 0.50 ± 0.03 % ID/g
Radioactivity distribution Muscle (lower limbs) ([2]; 60 min after administration): 0.13 ± 0.01 % ID/g
Radioactivity distribution Remaining whole body ([2]; 60 min after administration): 0.31 ± 0.02 % ID/g
Radioactivity distribution Small intestine ([2]; 60 min after administration): 1.18 ± 0.18 % ID/g
Radioactivity distribution Spleen ([2]; 60 min after administration): 0.78 ± 0.25 % ID/g
Radioactivity distribution Stomach ([2]; 60 min after administration): 2.97 ± 0.54 % ID/g
Radioactivity distribution Testis ([2]; 60 min after administration): 0.32 ± 0.05 % ID/g
Radioactivity distribution Whole brain ([2]; 60 min after administration): 0.03 ± 0.00 % ID/g
SMILES: FCCn1c(-c2cncc(Cn3cncc3[123I])c2)nc2cc(F)c(Cl)cc21 [[^123I] 610, 6-Chloro-5-fluoro-1-(2-fluoroethyl)-2-{5-(5-[^123I]iodo-1H-imidazol-1-ylmethyl)pyridin-3-yl}benzimidazole]
B2/B1 accumulation ratio [3]: 0.95
B2 (PSL value, aldosterone-producing adenoma) ([3]; site 71b): 2786
B1 (PSL value, normal adrenal cortex) ([3]; site 72b): 2931
